For test [1], the target named is Histone-lysine N-methyltransferase EZH2 (Homo sapiens, UniProt Q15910). As to the kind of experiment: Wild-Type PRC2 Enzyme Assay.
Procedure: (§1) The assays were performed in a buffer consisting of 20 mM bicine (pH=7.6), 0.5 mM DTT, 0.005% BSG, 100 mM KCl and 0.002% Tween20, prepared on the day of use. […] DMSO (1 μL) was added to columns 11, 12, 23, 24, rows A-H for the maximum signal control, and SAH, a known product and inhibitor of PRC2 (1 μL) was added to columns 11, 12, 23, 24, rows I-P for the minimum signal control. A cocktail (40 μL) containing the wild-type PRC2 enzyme and chicken erythrocyte oligonucleosome was added by Multidrop Combi (Thermo). The compounds were allowed to incubate with PRC2 for 30 min at 25° C., then a cocktail (10 μL) containing a mixture of non-radioactive and 3H-SAM was added to initiate the reaction (final volume=51 μL). […] The assay was stopped by the addition of non-radioactive SAM (10 μL) to a final concentration of 600 μM, which dilutes the 3H-SAM to a level where its incorporation into the chicken erythrocyte olignonucleosome substrate is no longer detectable. […] The plates were then read in a PerkinElmer TopCount platereader to measure the quantity of 3H-labeled chicken erythrocyte oligonucleosome bound to the Flashplate surface, measured as disintegrations per minute (dpm) or alternatively, referred to as counts per minute (cpm).
Test [2] has as its target Histone-lysine N-methyltransferase EZH2 [Y641F] (Homo sapiens, UniProt Q15910, Y641F). As to the kind of experiment: Wild-Type PRC2 Enzyme Assay.
Procedure: as §1

The record followed here is BindingDB's records for patent US10150764 (Epizyme, 2018).

Chain of Histone-lysine N-methyltransferase EZH2 [Y641F] (Q15910 whole entry Y641F): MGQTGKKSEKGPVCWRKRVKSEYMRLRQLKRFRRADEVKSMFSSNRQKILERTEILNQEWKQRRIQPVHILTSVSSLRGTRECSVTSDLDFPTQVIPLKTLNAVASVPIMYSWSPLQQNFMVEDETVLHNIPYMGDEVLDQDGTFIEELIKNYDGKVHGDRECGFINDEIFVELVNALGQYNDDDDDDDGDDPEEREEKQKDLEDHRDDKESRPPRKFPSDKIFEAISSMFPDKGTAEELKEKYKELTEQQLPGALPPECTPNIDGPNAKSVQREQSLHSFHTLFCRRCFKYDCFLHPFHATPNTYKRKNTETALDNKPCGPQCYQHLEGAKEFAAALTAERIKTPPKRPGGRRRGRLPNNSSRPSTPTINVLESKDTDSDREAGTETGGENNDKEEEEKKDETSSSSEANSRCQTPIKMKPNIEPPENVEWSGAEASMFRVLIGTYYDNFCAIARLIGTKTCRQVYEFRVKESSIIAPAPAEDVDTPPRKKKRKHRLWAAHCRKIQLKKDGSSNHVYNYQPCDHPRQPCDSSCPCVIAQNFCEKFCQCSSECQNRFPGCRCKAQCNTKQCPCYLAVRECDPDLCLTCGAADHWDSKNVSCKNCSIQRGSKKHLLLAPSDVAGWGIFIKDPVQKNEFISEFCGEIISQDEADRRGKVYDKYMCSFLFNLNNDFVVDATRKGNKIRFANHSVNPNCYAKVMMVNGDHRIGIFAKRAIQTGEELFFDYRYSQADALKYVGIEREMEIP
Chain of Histone-lysine N-methyltransferase EZH2 (Q15910 whole entry): as the sequence (Q15910 whole entry Y641F) above, with F641Y counted along it

A word on the IC50: it is the concentration at which inhibition is half-maximal. Low readings indicate greater potency in that assay, high ones weaker potency in that assay. As for `CCN(c1cc(Cl)cc(C(=O)NCc2c(C)cc3cc[nH]n3c2=O)c1C)[C@H]1CC[C@H](N(C)C)CC1` [US10150764, Compound 2], the results for the IC50 in test [1] and in test [2] were 15.1 µM and 8.35 µM, respectively.
